This note sets out measurements from PubChem BioAssay (NCI).

Each structure is given as a SMILES string.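 Five concentrations, 48 hours, 96-well plates. TGI is the concentration that stops growth completely.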 A value given as a limit tells only on which side of the number the result lay.

Common to all, as to test: NCI-60 cell line screen, 48 h
Test [1] deals with NCI-H460 lung.
The test system of test [2] is RPMI-8226 leukemia.
For test [3], the system named is A498 renal.
In test [4] the test system is SNB-19 CNS.
Test [5] has as its system K-562 leukemia.
For test [6], the system named is OVCAR-4 ovarian.
Test [7] concerns HT29 colon.
Test [8] concerns UO-31 renal.
In test [9] the test system is COLO 205 colon.
In test [10] the test system is SW-620 colon.
Test [11] deals with 786-0 renal.
Test [12] has as its system NCI/ADR-RES ovarian.
Test [13] deals with SK-MEL-5 melanoma.
For test [14], the system named is T-47D breast.
The subject of test [15] is HOP-62 NSCLC.
Test [16] relates to RXF 393 renal.
The subject of test [17] is HL-60(TB) leukemia.
In test [18] the test system is SR leukemia.

For the compound `O=C(C1OC1c1cccc([N+](=O)[O-])c1)C12CC3CC(CC(C3)C1)C2` (centres undefined), the TGI was determined as 14.5 µM in test [1]; 6.18 µM in test [2]; 14.2 µM in [3]; 20.5 µM in [4]; 13.2 µM in test [5]; 15.4 µM in [6]. Also, the TGI in [7] was found to be 13 µM; in test [8], 21 µM; in test [9], 23.4 µM; in test [10], 8.44 µM; in test [11] it was 7.1 µM; in test [12], 9.74 µM. Also, the TGI came to 22.9 µM in [13]; 26.3 µM in test [14]; 24.3 µM in [15]; 16.8 µM in test [16]; 15.8 µM in [17].
Consider `C=CCCC(=O)C(=[N+]=[N-])C(=O)CCC(=O)c1ccccc1`, for which the TGI in [1], in test [2], in [3], in test [18], in [4] and in [5] was more than 10 µM each time. For the same compound, the TGI in test [7], in [8], in test [10], in [11], in test [13] and in test [14] was more than 10 µM each time. The TGI in [15] and in test [16] was more than 10 µM in each case.
For `C[C@H]1O[C@@H](C(C)(C)C)OC(=O)[C@@H]1C(OC(=O)c1ccccc1)c1cccc2ccccc12` (some centres undefined), the TGI in test [1], in [2], in [18], in test [4], in [5] and in test [6] was more than 100 µM in each case. The TGI in [7], in test [8], in test [9], in test [10], in test [11] and in test [12] was more than 100 µM each time. Also, the TGI in test [13], in test [14], in [15] and in test [16] was more than 100 µM throughout.
With `CCOC(=O)/C=C(/C(=O)OCC)n1ccc(=O)n(Cc2cnnn2CCCCOC(C)=O)c1=O`, the TGI in test [1], in [2], in test [18], in [4], in test [5] and in test [6] was more than 100 µM each time. Moreover, the TGI was more than 100 µM in test [7]; more than 100 µM in test [8]; 46 µM in test [9]; 43.2 µM in test [10]; more than 100 µM in test [11]; more than 100 µM in test [12]. In addition, the TGI in [13], in test [14], in test [15] and in test [16] was more than 100 µM each time.
For the compound `Cc1cn(C2OC(CO)C(O)C2F)c(=O)[nH]c1=O` (centres undefined), the TGI in [1], in test [3], in [4], in test [5], in test [6] and in test [7] was more than 100 µM in each case. The TGI in [8], in test [9], in test [10], in [11], in test [12] and in test [13] was more than 100 µM in each case. Moreover, the TGI in test [14], in test [15], in test [16] and in [17] was more than 100 µM each time.
Consider `COC(=O)C1(O)C(c2ccccc2)NC2(C)CCCC21` (centres undefined), for which the TGI in test [3], in test [4], in test [6], in [8], in test [9] and in test [10] was more than 100 µM throughout. Further, the TGI in test [11], in test [12], in [13], in test [14], in [15] and in test [16] was more than 100 µM throughout. For the same compound, the TGI in test [17] was more than 100 µM.
On to `C/C(O[Si](C(C)C)(C(C)C)C(C)C)=C(\C)C(=O)N(C)c1ccccc1Cl`, for which the TGI in test [1], in test [2], in test [3], in test [4], in [6] and in test [7] was more than 100 µM each time. Besides, the TGI in test [8], in test [9], in test [10], in test [11], in test [12] and in test [13] was more than 100 µM each time. Also, the TGI in test [14], in test [15] and in test [16] was more than 100 µM in each case.
Regarding `O=C(NC1(C(=O)O)CCCC1)c1ccccc1`, the TGI in [1], in [2], in test [3], in test [4], in test [5] and in [7] was more than 100 µM throughout. The TGI in test [8], in [9], in test [10], in test [11], in test [12] and in test [13] was more than 100 µM in each case. Also, the TGI in test [14], in [15], in test [16] and in test [17] was more than 100 µM in each case.
For the compound `Cc1ccc(SCC(OCn2cnc3c(Cl)nc(N)nc32)[C@H](C)F)cc1` (some centres undefined), the TGI in test [1], in test [2], in test [18], in test [4], in test [6] and in [7] was more than 100 µM each time. Moreover, the TGI in [8] is more than 100 µM; in [9] it was more than 100 µM; in test [10] it was more than 100 µM; in [11] it was more than 100 µM; in test [12] it was more than 100 µM; in test [13] it was 47.6 µM. For the same compound, the TGI in test [14] is more than 100 µM; in test [15], more than 100 µM; in test [17], 96.8 µM.
As to `CC(=O)NC1(C)C(C)C2CC1C(C)C2(C)C` (centres undefined), the TGI in test [1], in test [3], in test [18], in test [4], in [5] and in test [6] was more than 100 µM in each case. Besides, the TGI in [7], in test [8], in [9], in test [10], in [11] and in test [13] was more than 100 µM in each case. Further, the TGI in test [14], in test [15], in [16] and in test [17] was more than 100 µM throughout.
For `Cc1nc(Nc2ccc(Cl)c(Cl)c2)sc1C(=O)/C=C/c1ccc2c(c1)OCO2`, the TGI in test [1] is more than 100 µM; in test [2] it was 45.9 µM; in [3] it was 47.8 µM; in [4] it was 51.9 µM; in [5] it was 89.9 µM; in test [6], 33.9 µM. Moreover, the TGI is more than 100 µM in test [7]; 33.7 µM in test [8]; 60.6 µM in [9]; more than 100 µM in [10]; 38.4 µM in test [11]; more than 100 µM in [12]. The TGI in [13] is 97.4 µM; in [14], more than 100 µM; in [15] it was 36.5 µM; in test [16], 29.3 µM; in test [17], 43.4 µM.
`C/C(O)=C(\C=NC(=S)c1ccncc1)C(=O)Nc1ccccc1C`: the TGI in test [1], in test [3], in test [4], in [6], in test [7] and in test [8] was more than 100 µM throughout. The TGI in [9], in test [10], in test [11], in [12], in [13] and in test [14] was more than 100 µM in each case. Besides, the TGI in test [15], in [16] and in test [17] was more than 100 µM each time.
As for `O=C1C(Cl)=C(NCCF)C(=O)c2ncccc21`, the TGI in [1] is 3.73 µM; in test [2], more than 10 µM; in test [3], more than 10 µM; in test [18] it was more than 10 µM; in test [4], 2.99 µM; in test [5] it was 2.82 µM. For the same compound, the TGI in test [7] worked out at 7.29 µM; in test [8] it was 2.6 µM; in [10], 3.35 µM; in [11], 3.21 µM; in test [13] it was 2.56 µM; in test [14], 4.25 µM. Besides, the results for the TGI in test [15], in [16] and in [17] were 4.39 µM, 3.24 µM and more than 10 µM, respectively.
Consider `CN(C)N=Nc1ccc2[nH]c(=O)[nH]c2c1`, for which the TGI in test [1], in test [2], in test [3], in test [4], in test [5] and in test [6] was more than 100 µM each time. Besides, the TGI in test [7], in test [8], in test [9], in [10], in test [11] and in test [12] was more than 100 µM each time. The TGI in [13] is more than 100 µM; in [14], more than 100 µM; in test [15], more than 100 µM; in test [16] it was more than 100 µM; in test [17], 83.7 µM.
Turning to `CCOc1cc(-c2nc3cc(F)ccc3s2)ccc1O`, the TGI is 34.9 µM in test [1]; 29.6 µM in test [2]; 26.2 µM in [3]; 30.7 µM in test [4]; 25.9 µM in test [5]; 43.2 µM in test [6]. In addition, the TGI in test [7] turned out to be 34.8 µM; in test [8], 25.8 µM; in test [9], 34.6 µM; in test [10], 40.7 µM; in test [11], 29.6 µM; in test [12] it was 50.2 µM. Further, the figures for the TGI in test [13], in test [14] and in test [16] were 32.2 µM, 28.1 µM and 35.4 µM, respectively.
As for `NC(N)=N/N=C/c1c(-c2cc([N+](=O)[O-])c(Cl)cc2Cl)nc2n1CCS2`, the TGI in test [1] was more than 100 µM; in test [2], more than 100 µM; in test [3], more than 100 µM; in [18] it was 3.43 µM; in test [4], 16.5 µM; in test [5], more than 100 µM. In addition, the TGI is 33.9 µM in test [6]; 27.5 µM in [7]; 38.2 µM in test [8]; more than 100 µM in test [10]; more than 100 µM in test [11]; more than 100 µM in [12]. In addition, the TGI in test [13] is more than 100 µM; in test [15], more than 100 µM; in [16], more than 100 µM; in test [17] it was 41 µM.
As to `CC1(C)OC2OC(COC(=O)c3ccc(C#N)cc3)C3OC(C)(C)OC3C2O1` (centres undefined), the TGI in [2], in [3], in test [18], in test [4], in test [5] and in test [6] was more than 75 µM each time. Besides, the TGI in test [7], in [8], in test [9], in [10], in test [11] and in [12] was more than 75 µM throughout. The TGI in [13], in [15] and in test [16] was more than 75 µM in each case.
On to `COCOc1cc(OC)ccc1C/C(=N/O)C(=O)OC`, for which the TGI in test [1], in test [4], in test [5], in [6], in [7] and in test [8] was more than 100 µM each time. Besides, the TGI in test [9], in test [10], in test [11], in test [12], in test [13] and in test [14] was more than 100 µM throughout. Further, the TGI in test [15], in test [16] and in [17] was more than 100 µM in each case.
